{"source": "patent US20080254155A1", "about": "“Use of Ginkgo Biloba Extract in Preparation of a Composition for Lowering Cholesterol” (SHANGHAI BIOCHIP CO., LTD, priority 2005, published 2008)", "tested_on": "HepG2 cells", "experiment": "Cellular cholesterol in HepG2 cells (cholesterol test kit)", "type": "cell-based, human", "details": "HepG2, 1 μM lovastatin, 6-hr culture", "protocol": "2) Cell Culture and Treatment • (1) Cell Source: HepG2 ATCC • (2) Condition of Culture • Medium: MEM (Minimum essential medium)+10% FBS • Incubation: 37° C., 5% CO2 • Passage and Collection: 0.05% trypsin+0.02% EDTA • (3) Cell Treatment:\nCells were cultured in petri dishes of φ×10 cm (falcon) and grown to the desired proliferation, then detached and transferred to a 6-well plate (falcon). The cells were allowed to adhere and proliferate to the desired density (about 60%-70% confluence), and then treated and grouped as indicated in the table below.\nIn order to minimize the interference from the cytokines and lipids in serum without sacrificing the growth, the medium was replaced with MEM+2% FBS during treatment.\nFor every batch of cells, each treatment was repeated in 6 replicates. The cells were treated at different time points and collected at the same time.\nThe cholesterol test kit from Shanghai JieMen Biotechnology Joint-Corporate was used in accordance to the manufacturer's instruction."}
{"smiles": "CC[C@H](C)C(=O)O[C@H]1C[C@@H](C)C=C2C=C[C@H](C)[C@H](CC[C@@H]3C[C@@H](O)CC(=O)O3)[C@H]21", "note": "[Positive Control, lovastatin]", "values": [{"measurement": "Cellular cholesterol", "value": "34.23 ± 2.38", "unit": "μg/mg protein"}]}
